The target of this assay is T1, glucocorticoid receptor (Homo sapiens, UniProt P04150).
T1 construct: endogenous in cells; ATCC cat
T1 sequence (P04150 1-777): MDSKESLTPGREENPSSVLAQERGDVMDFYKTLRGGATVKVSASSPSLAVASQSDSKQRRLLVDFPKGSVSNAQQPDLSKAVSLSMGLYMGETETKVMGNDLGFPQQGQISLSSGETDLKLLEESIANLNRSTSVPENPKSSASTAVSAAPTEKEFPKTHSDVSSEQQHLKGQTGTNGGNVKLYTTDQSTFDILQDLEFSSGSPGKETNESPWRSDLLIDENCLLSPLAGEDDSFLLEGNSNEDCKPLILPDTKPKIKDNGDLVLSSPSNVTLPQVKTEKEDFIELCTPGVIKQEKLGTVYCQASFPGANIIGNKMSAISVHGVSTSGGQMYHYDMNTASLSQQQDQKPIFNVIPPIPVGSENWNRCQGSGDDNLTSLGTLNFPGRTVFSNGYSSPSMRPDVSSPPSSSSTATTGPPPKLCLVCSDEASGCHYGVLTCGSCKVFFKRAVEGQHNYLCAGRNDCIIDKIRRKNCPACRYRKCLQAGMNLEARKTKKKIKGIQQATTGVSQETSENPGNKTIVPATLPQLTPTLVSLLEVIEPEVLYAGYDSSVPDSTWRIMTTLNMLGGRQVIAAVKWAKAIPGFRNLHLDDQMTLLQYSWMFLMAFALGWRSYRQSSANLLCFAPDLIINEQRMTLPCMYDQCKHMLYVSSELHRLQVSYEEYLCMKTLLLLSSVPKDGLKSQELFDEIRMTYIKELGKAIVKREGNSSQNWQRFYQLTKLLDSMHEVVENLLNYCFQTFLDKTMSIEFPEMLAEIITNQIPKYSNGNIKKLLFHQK
As to the kind of experiment: Hep G2 TAT Ki: inhibition of dexamethasone-induced TAT in HepG2 cells (96 well). Format: cell-based. The settings on record: challenge of 100 nM dexamethasone, IC50 converted to Ki by Cheng and Prusoff equation. The essentials: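 Cells lysed 15 min at 4 °C; TAT enzyme reaction 2 h at 37 °C, stopped with KOH, 30 min further at 37 °C. Inhibition fitted to 4-parameter logistic.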
Consider `Cc1ncc(S(=O)(=O)N2CCN(CCC(F)(F)F)C(c3cc4cnn(-c5ccc(F)cc5)c4cc3C)C2)s1` (single isomer, unassigned) [Example 133, 5-((3-(1-(4-fluorophenyl)-6-methyl-1H-indazol-5-yl)-4-(3,3,3-trifluoropropyl)piperazin-1-yl)sulfonyl)-2-methylthiazole], for which the Ki (commonly a measure of affinity in units of concentration, obtained from inhibition or displacement) worked out at 11 nM.
The compound `Cc1nc(S(=O)(=O)N2CCN(CCC(F)(F)F)C(c3cc4cnn(-c5ccc(F)cc5)c4cc3C)C2)cs1` (single isomer, unassigned) [Example 134, 4-((3-(1-(4-fluorophenyl)-6-methyl-1H-indazol-5-yl)-4-(3,3,3-trifluoropropyl)piperazin-1-yl)sulfonyl)-2-methylthiazole] showed a Ki of 6.5 nM.
The figure for `CCn1ncc(S(=O)(=O)N2CCN(CCC(F)(F)F)C(c3cc4cnn(-c5ccc(F)cc5)c4cc3C)C2)n1` (single isomer, unassigned) [Example 135, 5-(4-((2-ethyl-2H-1,2,3-triazol-4-yl)sulfonyl)-1-(3,3,3-trifluoropropyl)piperazin-2-yl)-1-(4-fluorophenyl)-6-methyl-1H-indazole] is 23 nM; for `COCCn1cc(S(=O)(=O)N2CCN(CCC(F)(F)F)C(c3cc4cnn(-c5ccc(F)cc5)c4cc3C)C2)cn1` (single isomer, unassigned) [Example 136, 1-(4-fluorophenyl)-5-(4-((1-(2-methoxyethyl)-1H-pyrazol-4-yl)sulfonyl)-1-(3,3,3-trifluoropropyl)piperazin-2-yl)-6-methyl-1H-indazole] it is 57 nM; for `Cc1cc2c(cnn2-c2ccc(F)cc2)cc1C1CN(S(=O)(=O)CC(C)C)CCN1CCC(F)(F)F` (single isomer, unassigned) [Example 137, 1-(4-fluorophenyl)-5-(4-(isobutylsulfonyl)-1-(3,3,3-trifluoropropyl)piperazin-2-yl)-6-methyl-1H-indazole] it is 33 nM.
In the case of `Cc1cc2c(cnn2-c2ccc(F)cc2)cc1C1CN(S(=O)(=O)c2cnccc2C)CCN1CCC(F)(F)F` (single isomer, unassigned) [Example 138, 1-(4-fluorophenyl)-6-methyl-5-(4-((4-methylpyridin-3-yl)sulfonyl)-1-(3,3,3-trifluoropropyl)piperazin-2-yl)-1H-indazole], the affinity corresponds to a Ki of 35 nM.
The figure for `Cc1cc2c(cnn2-c2ccc(F)cc2)cc1C1CN(S(=O)(=O)c2ccccn2)CCN1CCC(F)(F)F` (single isomer, unassigned) [Example 139, 1-(4-fluorophenyl)-6-methyl-5-(4-(pyridin-2-ylsulfonyl)-1-(3,3,3-trifluoropropyl)piperazin-2-yl)-1H-indazole] is 37 nM.
The figure for `Cc1cc2c(cnn2-c2ccc(F)cc2)cc1C1CN(S(=O)(=O)C2CCC2)CCN1CCC(F)(F)F` (single isomer, unassigned) [Example 140, 5-(4-(cyclobutylsulfonyl)-1-(3,3,3-trifluoropropyl)piperazin-2-yl)-1-(4-fluorophenyl)-6-methyl-1H-indazole] is 47 nM; for `Cc1cc2c(cnn2-c2ccc(F)cc2)cc1C1CN(S(=O)(=O)c2cnn(C)c2)CCN1CC(C)C(F)(F)F` (single isomer, unassigned) [Example 141, 1-(4-fluorophenyl)-6-methyl-5-(4-((1-methyl-1H-pyrazol-4-yl)sulfonyl)-1-(3,3,3-trifluoro-2-methylpropyl)piperazin-2-yl)-1H-indazole] it is 14 nM; for `Cc1cc2c(cnn2-c2ccc(F)cc2)cc1C1CN(S(=O)(=O)c2cnn(C)c2C)CCN1CC(C)C(F)(F)F` (single isomer, unassigned) [Example 142, 5-(4-((1,5-dimethyl-1H-pyrazol-4-yl)sulfonyl)-1-(3,3,3-trifluoro-2-methylpropyl)piperazin-2-yl)-1-(4-fluorophenyl)-6-methyl-1H-indazole] it is 13 nM.
The figure for `Cc1cc2c(cnn2-c2ccc(F)cc2)cc1C1CN(S(=O)(=O)c2ccc(C#N)cc2)CCN1CC(C)C(F)(F)F` (single isomer, unassigned) [Example 143, 4-((3-(1-(4-fluorophenyl)-6-methyl-1H-indazol-5-yl)-4-(3,3,3-trifluoro-2-methylpropyl)piperazin-1-yl)sulfonyl)benzonitrile] is 25 nM.
`CCn1cc(S(=O)(=O)N2CCN(CC(C)C(F)(F)F)C(c3cc4cnn(-c5ccc(F)cc5)c4cc3C)C2)cn1` (single isomer, unassigned) [Example 144, 5-(4-((1-ethyl-1H-pyrazol-4-yl)sulfonyl)-1-(3,3,3-trifluoro-2-methylpropyl)piperazin-2-yl)-1-(4-fluorophenyl)-6-methyl-1H-indazole] came in with a Ki of 15 nM.
For `Cc1cc2c(cnn2-c2ccc(F)cc2)cc1C1CN(S(=O)(=O)c2cccnc2)CCN1CC(C)C(F)(F)F` (single isomer, unassigned) [Example 145, 1-(4-fluorophenyl)-6-methyl-5-(4-(pyridin-3-ylsulfonyl)-1-(3,3,3-trifluoro-2-methylpropyl)piperazin-2-yl)-1H-indazole], affinity was put at a Ki of 8.5 nM.
Under `Cc1nc(S(=O)(=O)N2CCN(CC(C)C(F)(F)F)C(c3cc4cnn(-c5ccc(F)cc5)c4cc3C)C2)cs1` (single isomer, unassigned) [Example 146, 4-((3-(1-(4-fluorophenyl)-6-methyl-1H-indazol-5-yl)-4-(3,3,3-trifluoro-2-methylpropyl)piperazin-1-yl)sulfonyl)-2-methylthiazole] stands 7.5 nM.
`Cc1ncc(S(=O)(=O)N2CCN(CC(C)C(F)(F)F)C(c3cc4cnn(-c5ccc(F)cc5)c4cc3C)C2)s1` (single isomer, unassigned) [Example 147, 5-((3-(1-(4-fluorophenyl)-6-methyl-1H-indazol-5-yl)-4-(3,3,3-trifluoro-2-methylpropyl)piperazin-1-yl)sulfonyl)-2-methylthiazole] returned an inhibition constant Ki of 11 nM.
Under `CCn1ncc(S(=O)(=O)N2CCN(CC(C)C(F)(F)F)C(c3cc4cnn(-c5ccc(F)cc5)c4cc3C)C2)n1` (single isomer, unassigned) [Example 148, 5-(4-((2-ethyl-2H-1,2,3-triazol-4-yl)sulfonyl)-1-(3,3,3-trifluoro-2-methylpropyl)piperazin-2-yl)-1-(4-fluorophenyl)-6-methyl-1H-indazole] stands 38 nM; under `Cc1cc2c(cnn2-c2ccc(F)cc2)cc1C1CN(S(=O)(=O)c2cnccc2C)CCN1CC(C)C(F)(F)F` (single isomer, unassigned) [Example 149, 1-(4-fluorophenyl)-6-methyl-5-(4-((4-methylpyridin-3-yl)sulfonyl)-1-(3,3,3-trifluoro-2-methylpropyl)piperazin-2-yl)-1H-indazole], 56 nM; under `Cc1cc2c(cnn2-c2ccc(F)cc2)cc1C1CN(S(=O)(=O)c2ccccn2)CCN1CC(C)C(F)(F)F` (single isomer, unassigned) [Example 150, 1-(4-fluorophenyl)-6-methyl-5-(4-(pyridin-2-ylsulfonyl)-1-(3,3,3-trifluoro-2-methylpropyl)piperazin-2-yl)-1H-indazole], 19 nM.
The figure for `Cc1cc2c(cnn2-c2ccc(F)cc2)cc1C1CN(S(=O)(=O)C2CCC2)CCN1CC(C)C(F)(F)F` (single isomer, unassigned) [Example 151, 5-(4-(cyclobutylsulfonyl)-1-(3,3,3-trifluoro-2-methylpropyl)piperazin-2-yl)-1-(4-fluorophenyl)-6-methyl-1H-indazole] is 35 nM.
`Cc1cc2c(cnn2-c2ccc(F)cc2)cc1C1CN(S(=O)(=O)c2cnn(C)n2)CCN1CC1CC(F)C1` (single isomer, unassigned) [Example 156, 5-(1-((3-fluorocyclobutyl)methyl)-4-((2-methyl-2H-1,2,3-triazol-4-yl)sulfonyl)piperazin-2-yl)-1-(4-fluorophenyl)-6-methyl-1H-indazole] returned a Ki of 28 nM. This Ki and that of the compound before are within 1.5-fold of each other.
Under `Cc1cc2c(cnn2-c2ccc(F)cc2)cc1C1CN(S(=O)(=O)c2cnn(C)n2)CCN1CC(C)(F)F` (single isomer, unassigned) [Example 157, 5-(1-(2,2-difluoropropyl)-4-((2-methyl-2H-1,2,3-triazol-4-yl)sulfonyl)piperazin-2-yl)-1-(4-fluorophenyl)-6-methyl-1H-indazole] stands 43 nM.
Under `Cc1cc2c(cnn2-c2ccc(F)cc2)cc1C1CN(S(=O)(=O)c2cnn(C)n2)CCN1CC1CC1(F)F` (single isomer, unassigned) [Example 160, 5-(1-((2,2-difluorocyclopropyl)methyl)-4-((2-methyl-2H-1,2,3-triazol-4-yl)sulfonyl)piperazin-2-yl)-1-(4-fluorophenyl)-6-methyl-1H-indazole] stands 32 nM.

The values are drawn from US12098144B2, “Piperazine indazole glucocorticoid receptor antagonists” (Corcept Therapeutics Incorporated, priority 2021, dated 2024).
